Results on seven compounds are retold here after patent publication US20130210771A1, “METHODS AND COMPOSITIONS FOR TREATING CANCERS” (IRM LLC, priority 2007, published 2013).

Counter-ions that a name gives are not always drawn.

The test system of assay [1] is BCR-ABL positive colonies. The assay is described as follows: methyl cellulose colony assay of pretreated mixed bone marrow and spleen cultures. The assay is classed as cell-based, mouse. As to conditions: 10, 5, 2.5, 1 and 0 uM for 48 hours; colonies counted 10 days after plating, no cytokines (FIG. 2C). Here is the method:
(§1) Bone marrow cells from diseased mice are cultured in DMEM media containing 10% FBS (Gibco), SCF (RDI), IL-3 and IL-6 (R&D systems). For in-vitro treatment experiments, 4×10^6 bone marrow or spleen cells are seeded into 1 well of a 6-well plate. Cyclopamine-KAAD (obtained from Toronto Research Chemicals) is dissolved as ×1,000 stock in DMSO. After 72 hours of treatment, cells are plated in methyl cellulose media containing SCF, IL-6, IL-3 and insulin from stem cell technologies (M3434) according to the manufacturer's instruction. Colonies are counted 5 days and 10 days after plating. After 12 days, cells are diluted from the plates, washed in PBS and then either stained for analysis of different cell types or replated into a second or third plating round.
To further validate the effect of hedgehog pathway inhibition on the self renewing progenitor and leukemic stem cell population, mixed bone marrow and spleen cultures are treated with different concentrations of cyclopamine-KAAD (10, 5, 2.5, 1 and 0 uM) for 48 hours. The cells are then plated in methyl cellulose plates without supplementary cytokines, so that only BCR-ABL positive cells can survive. Colonies are counted 10 days after plating.

In assay [2] the test system is BCR-ABL positive bone marrow cells. The assay is described as follows: in vitro treatment of mixed bone marrow cultures from mice with CML-like syndrome, flow cytometry. Format: cell-based, mouse. The procedure: as §1
Flow cytometry stainings for analysis of hematological cell types is performed using the antibodies Sca-PE, Kit-APC, Lin markers CD3, Gr-1, CD11b, CD19, Ter119 all PE-Cy7 positive, CD4-PE, CD8-APC from BD Pharmingen according to the manufacturer's instructions. For cell cycle analysis of stem cells, cells are treated with cyclopamine for 48 hours, then stained with Lin markers, Kit-APC and Sca-PE. Stained bone marrow is then fixed in 2% Formalin. Cells are permeabilized with 70% chilled ethanol for at least 1 hour and then treated with propidium iodide (5 mg/ml) for at least 30 minutes. Cells are analyzed using a flow cytometer from Coulter. Annexin staining is performed after incubation of mixed bone marrow with cyclopamine for 24, 48 and 72 hours. Cells are stained with Annexin-PE antibody and 7-AAD (BD Bioscience) according to the manufacturer's instructions.
Bone marrow from mice with CML-like syndrome which contained about 50% BCR-ABL GFP positive cells versus 50% normal bone marrow cells is used. […] GFP positive cells after in vitro treatment with cyclopamine (2 μM or 5 μM) can be detected by flow cytometry analysis.
(§2) Gli1 transcript levels in the bone marrow are reduced after treatment with cyclopamine, verifying the inhibition of the hedgehog signaling pathway in those cells by the compound (FIG. 2B). In FIG. 2B, bone marrow cultures are treated with either DMSO alone or different concentrations of cyclopamine (2 μM or 5 μM) for six hours. RNA is extracted from treated cultures and Gli1 transcript levels are measured by Taqman PCT and normalized to GAPDH. Assays are done in triplicates.

Assay [3] deals with human CML K562 cells selected for resistance to imatinib. The conditions noted are these: cited from earlier work.
A further assay deals with CML. The conditions noted are these: CML therapy; cited from earlier work.
Assay [4] concerns BCR-ABL positive leukemia. The assay is described as follows: treatment of mice transplanted with BCR-ABL positive bone marrow (CML-like disease). Format: in vivo, mouse.
Protocol: Ptch+/− mice (Jackson Laboratory), Smo−/− mice (Deltagene), C57BL/6 mice (Jackson laboratory) and B6-Pep3b-Ly5.1 (Pep) mice) are maintained and genotyped as described. For bone marrow transplantation experiments, C57BL/6 males are injected with 5-FU (150 mg/kg) intraperitoneal and sacrificed four days later. Bone marrow mononuclear cells are flushed from the leg bones, red blood cells are lysed with ammonium-chloride and bone marrow cells are cultivated in DMEM containing 10% FBS, SCF, IL-6 and IL-3. Cells are infected with a pMSCV/BCR-ABL/IRES/GFP retrovirus, 5×10^5 mononuclear cells are transplanted into lethally irradiated C57BL/6 mice. Treatment with AMN107 50 mg/kg bid (Novartis, Basel) and cyclopamine 25 mg/kg bid (Novartis, Cambridge) started day 7 after transplantation for 14 days.
Mice transplanted with BCR-ABL positive bone marrow is treated with either a suboptimal dose of the ABL inhibitor AMN107, or with a combination of AMN107 (50 mg/kg qd) and the Smo antagonist cyclopamine (25 mg/kg bid). Treatment is started seven days after transplantation and is continued for fourteen days total. At the end of the treatment, three mice in each group are sacrificed and bone marrow from 1 femur is plated in methyl cellulose colony assays without addition of cytokines to detect only BCR-ABL positive colonies.
Eight days after the end of treatment, another three mice per group are sacrificed and examined for signs of relapse by comparing liver and spleen weight. […] The five remaining mice in each group are monitored for signs of disease and sacrificed when moribund.
For a further assay, the system named is Gli1. The assay is described as follows: Gli1 transcript levels in treated bone marrow cultures (Taqman PCR). Format: cell-based, mouse. As to conditions: 2 μM or 5 μM, six hours, normalized to GAPDH (FIG. 2B). Here is the method:
RNA is extracted from CD34+ cells from CML patients in chronic phase or blast crisis of disease, from whole bone marrow or from sorted Lin−Kit+Sca+ positive cells using a Qiagen RNA extraction kit according to the manufacturer's recommendation. Quantitative PCR is assessed by Taqman PCR. Primers and probes are obtained from Applied Biosystems.
as §2
Background: In qPCR the cycle at which signal appears reflects the starting amount.

The test system of another assay is Aurora kinases. The conditions noted are these: cited from earlier work.
Assay [5] deals with Ba/F3 cells transfected with E255V mutant BCR-ABL. The conditions noted are these: cited from earlier work.
In assay [6] the test system is Ba/F3 cells transfected with p210 non-mutated BCR-ABL. The conditions noted are these: cited from earlier work.
The subject of assay [7] is Ba/F3 cells transfected with M351T mutant BCR-ABL. The conditions noted are these: cited from earlier work.
The mark [8] stands for this setting: eight days after the end of treatment.
[9] abbreviates: mixed bone marrow cultures, 72 hours (FIG. 2A).

`CC1=C2C[C@H]3[C@@H](CC=C4CC(=O)CC[C@@]43C)[C@@H]2CC[C@]12O[C@@H]1C[C@H](C)CN(CCNC(=O)CCCCCNC(=O)CCc3ccccc3)[C@H]1[C@H]2C` [KAAD-cyclopamine]: the BCR-ABL positive colonies result in assay [1] was “dose dependent reduction”. Also, the “reduction of the GFP/BCR-ABL positive population compared to the GFP negative population” value in [2] (mixed bone marrow cultures, three days, 2 μM or 5 μM) is “dose dependent reduction”.

Take `Cc1cc(Nc2ncc3cc(-c4c(Cl)cccc4Cl)c(=O)n(C)c3n2)ccc1F` [PD180970]: in [3], the “proliferation of imatinib-resistant K562 cells over-expressing Lyn” value is “inhibited”.

Take `Cc1ccc(NC(=O)c2ccc(CN3CCN(C)CC3)cc2)cc1Nc1nccc(-c2cccnc2)n1` [Imatinib mesylate]: in the assay on CML, the response rates entry was “more than 96%”.

Regarding `Cc1cn(-c2cc(NC(=O)c3ccc(C)c(Nc4nccc(-c5cccnc5)n4)c3)cc(C(F)(F)F)c2)cn1` [AMN107, nilotinib], the “peripheral blood cell counts, spleen and liver weights” value in [4] (at the end of the treatment) was “normal”. In assay [4] (setting [8]), the “average spleen size relative to the combination group” value is reported as “about double” and the “liver weight relative to the combination group” value is “much higher”. In assay [4] (five mice per group, sacrificed when moribund (FIG. 5C)), the “average survival after end of treatment” value was “eight”.

Regarding `CC1=C2C[C@H]3[C@@H](CC=C4C[C@@H](O)CC[C@@]43C)[C@@H]2CC[C@]12O[C@@H]1C[C@H](C)CN[C@H]1[C@H]2C` [cyclopamine], the “Gli1 transcript levels in the bone marrow” value with Gli1 was “reduced”. Further, in assay [2] (48 hours, propidium iodide), the “alterations in the cell cycle, complete bone marrow” value was “relative increase of the G1 phase compared to S phase and G2 phase”; the “cell cycle analysis of the leukemic stem cell population” value is reported as “complete loss of the G2 phase”. For the same compound, the “apoptosis induction in BCR-ABL positive bone marrow cells, time” value in assay [2] (AnnexinV staining) was at most 24 h. In assay [2] (setting [9]), the “reduction of BCR-ABL positive myeloid progenitor cells (Lin−Kit+Sca−)” value is on record as “more than 80%” and the “reduction of the Lin−Kit+Sca+ leukemic stem cell population” value was “around 70%”.

Turning to `Cc1cc(Nc2cc(N3CCN(C)CC3)nc(Sc3ccc(NC(=O)C4CC4)cc3)n2)n[nH]1` [MK-0457], in the assay on Aurora kinases, the “inhibition of all three Aurora kinases” value was “nanomolar range”.

`NC(=O)c1cccc(-c2cc(Nc3ccc(OC(F)(F)F)cc3)ncn2)c1` [GNF-2, 3-[6-[[4-(trifluoromethoxy)phenyl]amino]-4-pyrimidinyl]benzamide]: the “proliferation of Ba/F3 cells, E255V mutant BCR-ABL” value in [5] was “inhibits the proliferation”. For the same compound, the “proliferation of Ba/F3 cells, p210 non-mutated BCR-ABL” value in assay [6] is recorded as “inhibits the proliferation”. The “proliferation of Ba/F3 cells, M351T mutant BCR-ABL” value in assay [7] is recorded as “inhibits the proliferation”.
